The EC50 is the concentration giving half of the maximal effect. A low value points to a more potent agent. As usually defined, the IC50 is the midpoint of a concentration-inhibition curve. A high value points to weaker potency in that assay.

In one data set the test system is HL-60. The experiment in a line: HL-60 differentiation potency. The conditions noted are these: Homo sapiens. It is filed as cell-based.
A short description of a further data set: in vitro. The conditions noted are these: human.

On to `C[C@H]1[C@@H](OCc2cc(F)c(C(=O)O)c(F)c2)O[C@@H]2O[C@@]3(C)CC[C@H]4[C@H](C)CC[C@@H]1[C@@]24OO3` [Compound 29, 2,6-difluoro-4-((((3R,5aS,6R, 8aS,9R,10S,12R, 12aR)-3,6,9-trimethyldeca-hydro-12H-3,12-epoxy[1,2]dioxepino[4,3-i]isochromen-10-yl)oxy)methyl) benzoic acid], for which it took 283 nM to reach a half-maximal effect in the data set on HL-60 (EC50). In “in vitro”, this compound gave an IC50 above 20 µM.
In the same order, the values of `Cc1cc(CN[C@@H]2O[C@@H]3O[C@@]4(C)CC[C@H]5[C@H](C)CC[C@@H]([C@H]2C)[C@@]35OO4)cc(C)n1` [Compound 37, (3R,5aS,6R,8aS, 9R,10R,12R, 12aR)-N-((2,6-dimethylpyridin-4-yl)methyl)-3,6,9-trimethyldeca-hydro-12H-3,12-epoxy[1,2] dioxepino[4,3-i] isochromen-10-amine] are 555 nM and 0.59 µM.
For the compound `C[C@H]1[C@@H](CCN2CCC(C(=O)O)CC2)O[C@@H]2O[C@@]3(C)CC[C@H]4[C@H](C)CC[C@@H]1[C@@]24OO3` [Compound 66, 1-(2-((3R,5aS,6R, 8aS,9R,10R,12R, 12aR)-3,6,9-trimethyldeca-hydro-12H-3,12-epoxy[1,2]dioxepino[4,3-i]isochromen-10-yl)ethyl) piperidine-4-carboxylic acid], the EC50 in the data set on HL-60 is above 20000 nM. In “in vitro”, this compound showed an IC50 above 20 µM.
Consider `C[C@H]1[C@H](OCCCc2ccc(C(=O)O)cc2F)O[C@@H]2O[C@@]3(C)CC[C@H]4[C@H](C)CC[C@@H]1[C@@]24OO3` [Compound 174, 3-fluoro-4-(3-(((3R,5aS,6R,8aS, 9R,10R,12R, 12aR)-3,6,9-trimethyldeca-hydro-12H-3,12-epoxy[1,2]dioxepino[4,3-i]isochromen-10-yl)oxy)propyl) benzoic acid], for which the EC50 with HL-60 was found to be 111 nM. This compound also displayed an IC50 in “in vitro” of 7 µM.
The compound `C[C@H]1[C@H](OCc2ccc(B(O)O)cc2)O[C@@H]2O[C@@]3(C)CC[C@H]4[C@H](C)CC[C@@H]1[C@@]24OO3` [Compound 176, (4-((((3R,5aS,6R,8aS, 9R,10R,12R, 12aR)-3,6,9-trimethyldeca-hydro-12H-3,12-epoxy[1,2]dioxepino[4,3-i]isochromen-10-yl)oxy)methyl)phenyl)boronic acid] yielded a 50% effective concentration (EC50) in the data set on HL-60 of 206 nM. In the data set “in vitro”, this compound registered an IC50 of 0.4 µM.
Compound `C[C@H]1[C@@H](Oc2ccc(CC(=O)O)c(F)c2F)O[C@@H]2O[C@@]3(C)CC[C@H]4[C@H](C)CC[C@@H]1[C@@]24OO3` [Compound 23, 2-(2,3-difluoro-4-(((3R,5aS,6R,8aS, 9R,10S,12R, 12aR)-3,6,9-trimethyldeca-hydro-12H-3,12-epoxy[1,2]dioxepino[4,3-i]isochromen-10-yl)oxy)phenyl) acetic acid] returned a 50% effective concentration (EC50) in the data set with HL-60 of 192 nM. The same compound registered an IC50 in the data set “in vitro” of 15 µM.
In the same order, the values of `C[C@H]1[C@@H](Oc2ccc(C(=O)NCC(=O)O)cc2)O[C@@H]2O[C@@]3(C)CC[C@H]4[C@H](C)CC[C@@H]1[C@@]24OO3` [Compound 142, (4-(((3R,5aS,6R,8aS, 9R,10S,12R, 12aR)-3,6,9-trimethyldeca-hydro-12H-3,12-epoxy[1,2]dioxepino[4,3-i]isochromen-10-yl)oxy)benzoyl) glycine] are 1820 nM and above 20 µM.
Turning to `C[C@H]1[C@@H](OCc2ccc(C(=O)O)c(Cl)c2)O[C@@H]2O[C@@]3(C)CC[C@H]4[C@H](C)CC[C@@H]1[C@@]24OO3` [Compound 33, 2-chloro-4-((((3R,5aS,6R, 8aS,9R,10S,12R, 12aR)-3,6,9-trimethyldeca-hydro-12H-3,12-epoxy[1,2]dioxepino[4,3-i]isochromen-10-yl)oxy)methyl) benzoic acid], the EC50 with HL-60 is 343 nM. The IC50 in the data set “in vitro” was above 20 µM.
`C[C@H]1[C@@H](OCC2CC3C(C2)C3C(=O)O)O[C@@H]2O[C@@]3(C)CC[C@H]4[C@H](C)CC[C@@H]1[C@@]24OO3` (stereo partly drawn) [Compound 181, 3-((((3R,5aS,6R,8aS, 9R,10S,12R, 12aR)-3,6,9-trimethyldeca-hydro-12H-3,12-epoxy[1,2]dioxepino[4,3-i]isochromen-10-yl)oxy)methyl) bicyclo[3.1.0] hexane-6-carboxylic acid]: the EC50 in the data set with HL-60 came to 140 nM. In “in vitro”, the IC50 is above 20 µM.
In the same order, the values of `C[C@H]1[C@@H](OCC(=O)N2C[C@H]3[C@@H]([C@H]2C(=O)O)C3(C)C)O[C@@H]2O[C@@]3(C)CC[C@H]4[C@H](C)CC[C@@H]1[C@@]24OO3` [Compound 151, (1R,2S,5S)-6,6-dimethyl-3-(2-(((3R,5aS,6R,8aS, 9R,10S,12R, 12aR)-3,6,9-trimethyldeca-hydro-12H-3,12-epoxy[1,2]dioxepino[4,3-i]isochromen-10-yl)oxy)acetyl)-3-azabicyclo[3.1.0] hexane-2-carboxylic acid] are 1570 nM and above 20 µM.
In the same order, the values of `C[C@H]1[C@@H](OCc2ccc(C(=O)O)c(F)c2)O[C@@H]2O[C@@]3(C)CC[C@H]4[C@H](C)CC[C@@H]1[C@@]24OO3` [Compound 24, 2-fluoro-4-((((3R,5aS,6R,8aS, 9R,10S,12R, 12aR)-3,6,9-trimethyldeca-hydro-12H-3,12-epoxy[1,2]dioxepino[4,3-i]isochromen-10-yl)oxy)methyl) benzoic acid] are 210 nM and above 20 µM.
Consider `C[C@H]1[C@H](NCCS(C)(=O)=O)O[C@@H]2O[C@@]3(C)CC[C@H]4[C@H](C)CC[C@@H]1[C@@]24OO3` [Compound 99, (3R,5aS,6R,8aS, 9R,10R,12R, 12aR)-3,6,9-trimethyl-N-(2-(methylsulfonyl)ethyl)decahydro-12H-3,12-epoxy [1,2]dioxepino [4,3-i]isochromen-10-amine], for which the EC50 in the data set on HL-60 came out at 660 nM. For the same compound, the IC50 in the data set “in vitro” was 0.743 µM.
In the same order, the values of `C[C@H]1[C@@H](OC[C@@H]2CCC[C@H](C(=O)O)C2)O[C@@H]2O[C@@]3(C)CC[C@H]4[C@H](C)CC[C@@H]1[C@@]24OO3` [Compound 138, (1S,3R)-3-((((3R,5aS,6R, 8aS,9R,10S,12R, 12aR)-3,6,9-trimethyldeca-hydro-12H-3,12-epoxy[1,2]dioxepino[4,3-i]isochromen-10-yl)oxy)methyl) cyclohexane-1-carboxylic acid] are 120 nM and above 20 µM.
The compound `C[C@H]1[C@@H](OCc2cc(C(=O)O)cc(C(=O)O)c2)O[C@@H]2O[C@@]3(C)CC[C@H]4[C@H](C)CC[C@@H]1[C@@]24OO3` [Compound 141, 5-((((3R,5aS,6R,8aS, 9R,10S,12R, 12aR)-3,6,9-trimethyldeca-hydro-12H-3,12-epoxy[1,2]dioxepino[4,3-i]isochromen-10-yl)oxy)methyl) isophthalic acid] yielded an EC50 with HL-60 above 20000 nM. The IC50 in the data set “in vitro” is above 20 µM.
In the data set with HL-60, `C[C@H]1[C@H](OCCS(C)(=O)=O)O[C@@H]2O[C@@]3(C)CC[C@H]4[C@H](C)CC[C@@H]1[C@@]24OO3` [Compound 53, (3R,5aS,6R,8aS, 9R,10R,12R, 12aR)-3,6,9-trimethyl-10-(2-(methylsulfonyl)ethoxy)deca-hydro-12H-3,12-epoxy[1,2] dioxepino[4,3-i] isochromene] displayed an EC50 of 2730 nM. The IC50 in the data set “in vitro” is above 20 µM.
In the case of `Cc1cc(C(=O)O)ccc1CO[C@H]1O[C@@H]2O[C@@]3(C)CC[C@H]4[C@H](C)CC[C@@H]([C@H]1C)[C@@]24OO3` [Compound 74, 3-methyl-4-((((3R,5aS,6R,8aS, 9R,10S,12R, 12aR)-3,6,9-trimethyldeca-hydro-12H-3,12-epoxy[1,2]dioxepino[4,3-i]isochromen-10-yl)oxy)methyl) benzoic acid], the response with HL-60 was half-maximal at 865 nM (EC50). Moreover, the IC50 in “in vitro” was above 20 µM.
Compound `COc1cc(CN[C@@H]2O[C@@H]3O[C@@]4(C)CC[C@H]5[C@H](C)CC[C@@H]([C@H]2C)[C@@]35OO4)ccn1` [Compound 50, (3R,5aS,6R,8aS, 9R,10R,12R, 12aR)-N-((2-methoxypyridin-4-yl)methyl)-3,6,9-trimethyldeca-hydro-12H-3,12-epoxy[1,2] dioxepino[4,3-i] isochromen-10-amine] gave an EC50 with HL-60 of 2320 nM. This compound registered an IC50 in “in vitro” of 4.88 µM.
`C[C@H]1[C@H](Oc2ccc(C(=O)C(=O)O)cc2)O[C@@H]2O[C@@]3(C)CC[C@H]4[C@H](C)CC[C@@H]1[C@@]24OO3` [Compound 129, 2-oxo-2-(4-(((3R,5aS,6R,8aS, 9R,10R,12R, 12aR)-3,6,9-trimethyldeca-hydro-12H-3,12-epoxy[1,2]dioxepino[4,3-i]isochromen-10-yl)oxy)phenyl) acetic acid]: in the data set on HL-60, a half-maximal effect (EC50) was put at 3380 nM. The compound further came in with an IC50 in “in vitro” of 10.5 µM.
With `C[C@H]1[C@@H](OCC(=O)N2C[C@H](F)C[C@H]2C(=O)O)O[C@@H]2O[C@@]3(C)CC[C@H]4[C@H](C)CC[C@@H]1[C@@]24OO3` [Compound 150, (2S,4R)-4-fluoro-1-(2-(((3R,5aS,6R,8aS, 9R,10S,12R, 12aR)-3,6,9-trimethyldeca-hydro-12H-3,12-epoxy[1,2]dioxepino[4,3-i]isochromen-10-yl)oxy)acetyl) pyrrolidine-2-carboxylic acid], the EC50 with HL-60 is above 20000 nM. The same compound gave an IC50 in the data set “in vitro” above 20 µM.
In the data set with HL-60, `C[C@H]1[C@H](NCc2ccncc2)O[C@@H]2O[C@@]3(C)CC[C@H]4[C@H](C)CC[C@@H]1[C@@]24OO3` [Compound 98, (3R,5aS,6R,8aS, 9R,10R,12R, 12aR)-3,6,9-trimethyl-N-(pyridin-4-ylmethyl)deca-hydro-12H-3,12-epoxy[1,2] dioxepino[4,3-i] isochromen-10-amine] showed an EC50 above 20000 nM. The same compound had an IC50 in the data set “in vitro” above 20 µM.
In turn, `C[C@H]1[C@H](OC[C@H]2CCC[C@@H](C(=O)O)C2)O[C@@H]2O[C@@]3(C)CC[C@H]4[C@H](C)CC[C@@H]1[C@@]24OO3` [Compound 173, (1R,3S)-3-((((3R,5aS,6R,8aS, 9R,10R,12R, 12aR)-3,6,9-trimethyldeca-hydro-12H-3,12-epoxy[1,2]dioxepino[4,3-i]isochromen-10-yl)oxy)methyl) cyclohexane-1-carboxylic acid] displayed an EC50 in the data set with HL-60 of 170 nM. The IC50 in the data set “in vitro” was above 20 µM.
Turning to `CC(O[C@H]1O[C@@H]2O[C@@]3(C)CC[C@H]4[C@H](C)CC[C@@H]([C@H]1C)[C@@]24OO3)c1ccc(C(=O)O)cc1Cl` (stereo partly drawn) [Compound 179, 3-chloro-4-(1-(((3R,5aS,6R,8aS, 9R,10S,12R, 12aR)-3,6,9-trimethyldeca-hydro-12H-3,12-epoxy[1,2]dioxepino[4,3-i]isochromen-10-yl)oxy)ethyl) benzoic acid], in the data set on HL-60, the EC50 worked out at 65.8 nM. The IC50 in the data set “in vitro” came to 1.5 µM.

The values above are taken from patent US20260242391A1 (priority 2023, published 2026).
